Test system: 186277-243-T-J2-PDC spheroids with HUVEC/MSC, viability
Test: Anticancer human tumor 186277-243-T-J2-PDC patient-derived colon adenocarcinoma cell line growth inhibition [CLK]
Settings: for viability, T/C: stronger effect = lower value
Text: A high-throughput screen of multi-cell type tumor spheroids was designed to identify active combinations of […] and targeted small molecules. Complex spheroids include a stromal component modeled by human endothelial cells (HUVEC) and fibroblasts modeled by human mesenchymal stem cells (MSCs). The concentration ranges selected for each drug and investigational agent were based upon clinically achievable concentrations if the clinical Cmax of the agent was known.
Compounds. The drugs and investigational agents: cirtuvivint (SM08502; NSC835563), CC-671 (NSC850746), vemurafenib (NSC761431), tapotoclax (NSC804041), sotorasib (NSC818433), adagrasib (NSC831453), MRTX-1133 (NSC836407), BAY2416964 (NSC825713), copanlisib (NSC816437), inavolisib (NSC800729), abemaciclib (NSC768073), osimertinib (NSC779217), entinostat (NSC756642), eltanexor (KPT-8602, NSC794443), venetoclax (NSC766270), ceralasertib (NSC777638), bortezomib (NSC756655), olaparib (NSC753686), talazoparib (NSC767125), alisertib (NSC759677), peposertib (NSC802822), gemcitabine (NSC613327), 5-fluorouracil (NSC19893), SN-38 (NSC673596), oxaliplatin (NSC266046), paclitaxel (NSC125973), and doxorubicin (NSC123127), were obtained from the National Cancer Institute (NCI) Developmental Therapeutics Program Chemical Repository. The FDA-approved anticancer drug set is available from the Developmental Therapeutics Program at https://dtp.cancer.gov/organization/dscb/obtaining/available plates.htm. […] The stock solutions were prepared in dimethyl sulfoxide (DMSO, Sigma-Aldrich, St. Louis, MO, cat. D2650), except for the platinum complexes which were prepared in saline (Quality Biological, Gaithersburg, MD, cat. 114-055-101), at 800-fold the tested concentration and stored at -70 degrees C prior to their use. All drugs and investigational agents were tested over a range starting from a high concentration at or near the clinical Cmax and decreasing in half-log increments. If the clinical Cmax for an agent had not been determined, the highest concentration tested was 10 microM.
Cell Culture. All cells were maintained in an incubator at 37 degrees C and 5% CO2 with 95% humidity. The PDC lines were cultured according to standard operating procedures established by the NCI PDMR. Briefly, all PDCs were thawed and cultured in Matrigel-coated flasks prepared with a working solution of 1X Ham's F-12 nutrient mix, without supplementation (Invitrogen, Waltham, MA, cat. 11765054), 100 U/mL penicillin-streptomycin (Invitrogen, cat. 15140122), and 2.5% Matrigel (Corning Inc., Corning, NY, cat. 354248) for the first three passages. The 947758-054-R-J2-PDC line was cultured in 6B/Colon 1A media, which includes advanced DMEM/F-12 (Thermo Fisher Scientific, cat. 12634028), 10 mM HEPES (Thermo Fisher Scientific, cat. 15630080), 1X GlutaMAX supplement (Thermo Fisher Scientific, cat. 35050061), 0.1 mg/mL primocin (InvivoGen, cat. ant-pm-2), 10% defined fetal bovine serum, heat inactivated (HyClone Laboratories Inc., cat. SH30070.03HI), 1.25 mM N-Acetyl-L-cysteine (Sigma-Aldrich, cat. A9165), 10 mM nicotinamide (Sigma-Aldrich, cat. N0636), 1X B-27 supplement (Thermo Fisher Scientific, cat. 17504044), 1X N-2 supplement (Thermo Fisher Scientific, cat. 17502048), and 10 microM Y-27632 dihydrochloride (Tocris Bioscience, cat. 1254). The 876862-298-R-J1-PDC was cultured in 6E media, which includes all 6B/Colon 1A media components plus 50% L-WRN conditioned media (ATCC, cat. CRL-3276), 50 ng/mL recombinant human EGF recombinant protein (hEGF; Thermo Fisher Scientific, cat. PHG0311), 10 ng/mL recombinant human fibroblast growth factor 10 (hGFG-10; PeproTech, cat. 100-26), 1 ng/mL recombinant human fibroblast growth factor 2 (hFGF-2; PeproTech, cat. 100-18B), and 1 µM prostaglandin E2 (PGE2; Tocris, cat. 2296). The 227483-062-R1-J1-PDC line was cultured in Panc media, containing all 6E components except hFGF-2, with the addition of 500 nM SB-431542 (Selleckchem, cat. S1067) and 10 nM gastrin (Tocris, cat. 3006). […]
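Note: compound exposure lasted seven days before readout.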
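Throughout, for viability, T/C: 100% = DMSO vehicle control wells.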

**Q.** For `CN1CCN(c2cc(C(=O)Nc3cc4cc(-c5cnn(C)c5)ccc4cn3)ccn2)CC1`, which viability, T/C (compound 0.316 µM) is on record?
**A.** 23.7% [middle of 11 runs]

**Q.** What about the viability, T/C (compound 1 µM) of the same compound?
**A.** 0.99% [middle of 10 runs]

**Q.** What about the viability, T/C (compound 3.16 µM) of the same compound?
**A.** 1.22% [middle of 11 runs]

**Q.** What about the viability, T/C (compound 10 µM) of the same compound?
**A.** 1.7% [middle of 11 runs]

**Q.** What about the IC50 (compound alone, run of 08/14/2023) of the same compound?
**A.** 192 nM [middle of 11 runs]

**Q.** With `CNC(=O)c1ccc(Nc2nc(OC3CCCC3)c3c(-c4ccc5nc(C)oc5c4)c[nH]c3n2)c(OC)c1` as the compound, how does the viability, T/C (compound 0.1 µM) read?
**A.** 67.9% [middle of 12 runs]

**Q.** And the viability, T/C (compound 0.316 µM)?
**A.** 46.2% [middle of 12 runs]

**Q.** And the viability, T/C (compound 1 µM)?
**A.** 33% [middle of 12 runs]

**Q.** And the viability, T/C (compound 3.16 µM)?
**A.** 32.1% [middle of 12 runs]

**Q.** And the viability, T/C (compound 10 µM)?
**A.** 33.9% [middle of 11 runs]

**Q.** What about the IC50 (compound alone, run of 08/15/2023) of the same compound?
**A.** 241 nM [middle of 12 runs]

**Q.** Which viability, T/C (compound 0.0316 µM) does the source give for `COc1ccc([C@@H](O)c2cc(-c3ncnc4cc(N5CCOCC5)ccc34)c(F)cc2Cl)nn1` here?
**A.** 95.1%

**Q.** And the viability, T/C (compound 0.1 µM)?
**A.** 96.1%

**Q.** What about the viability, T/C (compound 0.316 µM) of the same compound?
**A.** 117%

**Q.** And the viability, T/C (compound 1 µM)?
**A.** 85.1%

**Q.** What about the viability, T/C (compound 3.16 µM) of the same compound?
**A.** 87.2%

**Q.** And the viability, T/C (compound 10 µM)?
**A.** 49.2%

**Q.** And the IC50 (curve of compound)?
**A.** 9.91 µM

**Q.** Which IC50 (curve of first compound, second compound 0.0316 µM) does the source give for `C=CC(=O)N1CCN(c2nc(=O)n(-c3c(C)ccnc3C(C)C)c3nc(-c4c(O)cccc4F)c(F)cc23)C(C)C1` (stereo not given) + CN1CCN(c2cc(C(=O)Nc3cc4cc(-c5cnn(C)c5)ccc4cn3)ccn2)CC1 here?
**A.** > 10 µM

**Q.** What about the IC50 (curve of first compound, second compound 0.1 µM) of the same compound?
**A.** > 10 µM

**Q.** And the IC50 (curve of first compound, second compound 0.316 µM)?
**A.** < 0.0316 µM

**Q.** What about the IC50 (curve of first compound, second compound 1 µM) of the same compound?
**A.** < 0.0316 µM

**Q.** And the IC50 (curve of first compound, second compound 3.16 µM)?
**A.** < 0.0316 µM

**Q.** What about the IC50 (curve of first compound, second compound 10 µM) of the same compound?
**A.** < 0.0316 µM

**Q.** And the viability, T/C (second compound 0.0316 µM, first compound 0.0316 µM)?
**A.** 97.2%

**Q.** And the viability, T/C (second compound 0.0316 µM, first compound 0.1 µM)?
**A.** 108%

**Q.** And the viability, T/C (second compound 0.0316 µM, first compound 0.316 µM)?
**A.** 102%

**Q.** And the viability, T/C (second compound 0.0316 µM, first compound 1 µM)?
**A.** 98.8%

**Q.** What about the viability, T/C (second compound 0.0316 µM, first compound 3.16 µM) of the same compound?
**A.** 102%

**Q.** And the viability, T/C (second compound 0.0316 µM, first compound 10 µM)?
**A.** 86.6%

**Q.** What about the viability, T/C (second compound 0.1 µM, first compound 0.0316 µM) of the same compound?
**A.** 102%

**Q.** What about the viability, T/C (second compound 0.1 µM, first compound 0.1 µM) of the same compound?
**A.** 81%

**Q.** And the viability, T/C (second compound 0.1 µM, first compound 0.316 µM)?
**A.** 90.5%

**Q.** What about the viability, T/C (second compound 0.1 µM, first compound 1 µM) of the same compound?
**A.** 84.1%

**Q.** And the viability, T/C (second compound 0.1 µM, first compound 3.16 µM)?
**A.** 86.2%

**Q.** What about the viability, T/C (second compound 0.1 µM, first compound 10 µM) of the same compound?
**A.** 72.4%

**Q.** What about the viability, T/C (second compound 0.316 µM, first compound 0.0316 µM) of the same compound?
**A.** 29.7%

**Q.** And the viability, T/C (second compound 0.316 µM, first compound 0.1 µM)?
**A.** 28.8%

**Q.** What about the viability, T/C (second compound 0.316 µM, first compound 0.316 µM) of the same compound?
**A.** 29.5%

**Q.** What about the viability, T/C (second compound 0.316 µM, first compound 1 µM) of the same compound?
**A.** 24.8%

**Q.** What about the viability, T/C (second compound 0.316 µM, first compound 3.16 µM) of the same compound?
**A.** 30.8%

**Q.** And the viability, T/C (second compound 0.316 µM, first compound 10 µM)?
**A.** 11%

**Q.** What about the viability, T/C (second compound 1 µM, first compound 0.0316 µM) of the same compound?
**A.** 0.72%

**Q.** What about the viability, T/C (second compound 1 µM, first compound 0.1 µM) of the same compound?
**A.** 1.4%

**Q.** And the viability, T/C (second compound 1 µM, first compound 0.316 µM)?
**A.** 0.59%

**Q.** What about the viability, T/C (second compound 1 µM, first compound 1 µM) of the same compound?
**A.** 1.74%

**Q.** What about the viability, T/C (second compound 1 µM, first compound 3.16 µM) of the same compound?
**A.** 1.4%

**Q.** What about the viability, T/C (second compound 1 µM, first compound 10 µM) of the same compound?
**A.** 1.65%

**Q.** And the viability, T/C (second compound 3.16 µM, first compound 0.0316 µM)?
**A.** 0.98%

**Q.** What about the viability, T/C (second compound 3.16 µM, first compound 0.1 µM) of the same compound?
**A.** 1.19%

**Q.** And the viability, T/C (second compound 3.16 µM, first compound 0.316 µM)?
**A.** 1.22%

**Q.** What about the viability, T/C (second compound 3.16 µM, first compound 1 µM) of the same compound?
**A.** 2.38%

**Q.** And the viability, T/C (second compound 3.16 µM, first compound 3.16 µM)?
**A.** 2.84%

**Q.** And the viability, T/C (second compound 3.16 µM, first compound 10 µM)?
**A.** 1.94%

**Q.** And the viability, T/C (second compound 10 µM, first compound 0.0316 µM)?
**A.** 0.63%

**Q.** And the viability, T/C (second compound 10 µM, first compound 0.1 µM)?
**A.** 0.71%

**Q.** And the viability, T/C (second compound 10 µM, first compound 0.316 µM)?
**A.** 1.36%

**Q.** And the viability, T/C (second compound 10 µM, first compound 1 µM)?
**A.** 1.03%

**Q.** What about the viability, T/C (second compound 10 µM, first compound 3.16 µM) of the same compound?
**A.** 2.23%

**Q.** And the viability, T/C (second compound 10 µM, first compound 10 µM)?
**A.** 1.12%
